22 molecules from patent publication US7186743B2, “Substituted pyrazolyl compounds for the treatment of inflammation” (Pharmacia Corporation, priority 2001, dated 2007) can be followed below.

Counter-ions that a name gives are not always drawn.

The target of one assay is T1, IKK2 (Homo sapiens, UniProt O14920).
T1 construct: made in house; host or cells: insect cells (baculovirus, pFastBac; SF9)
T1 sequence (O14920 1-756): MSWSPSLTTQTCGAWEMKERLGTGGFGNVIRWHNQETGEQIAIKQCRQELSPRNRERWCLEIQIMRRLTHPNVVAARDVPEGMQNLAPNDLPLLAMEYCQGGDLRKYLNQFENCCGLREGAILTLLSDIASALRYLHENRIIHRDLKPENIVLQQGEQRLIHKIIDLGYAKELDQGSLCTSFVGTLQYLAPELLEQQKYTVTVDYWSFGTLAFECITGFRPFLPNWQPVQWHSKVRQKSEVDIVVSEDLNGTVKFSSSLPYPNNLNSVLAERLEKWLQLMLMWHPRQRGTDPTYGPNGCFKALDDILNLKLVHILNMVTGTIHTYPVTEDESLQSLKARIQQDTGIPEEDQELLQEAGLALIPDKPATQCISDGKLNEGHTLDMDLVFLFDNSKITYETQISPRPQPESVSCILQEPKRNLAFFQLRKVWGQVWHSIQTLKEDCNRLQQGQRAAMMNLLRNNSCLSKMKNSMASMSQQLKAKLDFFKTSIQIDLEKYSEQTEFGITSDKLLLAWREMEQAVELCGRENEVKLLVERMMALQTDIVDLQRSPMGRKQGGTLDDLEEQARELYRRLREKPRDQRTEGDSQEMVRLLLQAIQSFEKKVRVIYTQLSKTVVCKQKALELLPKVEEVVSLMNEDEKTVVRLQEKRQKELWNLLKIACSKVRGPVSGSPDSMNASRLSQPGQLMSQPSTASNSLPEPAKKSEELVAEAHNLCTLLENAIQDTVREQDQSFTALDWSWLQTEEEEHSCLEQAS
Put plainly: IKKβ Resin Enzyme Assay (IKK2 resin). As to conditions: Table 1; read-out: IKK2-resin. The assay is classed as biochemical. From the text:
cDNAs of human IKK1 and IKK2 were amplified by reverse transcriptase-polymerase chain reaction from human placental RNA (Clonetech). hIKK1 was subcloned into pFastBac HTa (Life Technologies) and expressed as N-terminal His6-tagged fusion protein. The hIKK2 cDNA was amplified using a reverse oligonucleotide primer which incorporated the peptide sequence for a FLAG-epitope tag at the C-terminus of the IKK2 coding region ([…]). The hIKK2:FLAG cDNA was subcloned into the baculovirus vector pFastBac. The rhIKK2 ([…]) mutant was constructed in the same vector used for wild type rhIKK2 using a QuikChange™ mutagenesis kit (Stratagene). Viral stocks of each construct were used to infect insect cells grown in 40 L suspension culture. […] Cell lysates were stored at −80° C. until purification of the recombinant proteins was undertaken as described below.
A 10-liter culture of baculovirus-expressing IKK2 tagged with FLAG peptide was centrifuged and the cell pellet (MOI=0.1 and I=72 hrs) was re-suspended in buffer A. These cells were microfluidized, and centrifuged at 100,000×g for 45 min. Supernatant was passed over a G-25 column equilibrated with Buffer A. Protein peak was collected and incubated with anti-FLAG affinity resin on a rotator overnight in buffer B. The resin was washed in batch with 10–15 bed volumes of buffer C. Washed resin was poured into a column and rhIKK2 homodimer was eluted using 5 bed volumes of buffer B containing FLAG peptide. 5 mM DTT, 0.1% NP-40 and BSA (concentrated to 0.1% in final amount) was added to the eluted enzyme before concentrating in using an Amicon membrane with a molecular weight cut-off of 30 kDa. Enzyme was aliquoted and stored at −80° C.
IKKβ kinase activity was measured using a biotinylated IκBα peptide ([…]32-Gly-Leu-Asp-Ser36-Met-Lys-Asp-Glu-Glu) (American Peptide Co.). […] ATP (Amersham) (about 1×10^5 cpm), 1 μM ATP (Sigma), 1 mM DTT (Sigma), 2 mM MgCl2 (Sigma), 2 mM MnCl2 (Sigma), 10 mM NaF (Sigma), 25 mM Hepes (Sigma) buffer, pH 7.6 and 20 μl enzyme solution and 10 ul inhibitor in a final volume of 50 μl. After incubation at 25° C. for 30 min, 150 μl resin (Dowex anion-exchange resin AG1X8 200–400 mesh) in 900 mM formate, pH 3.0 was added to each well to stop the reaction. Resin was allowed to settle for one hour and 50 ul of supernatant was removed to a Micolite-2 flat bottom plate (Dynex). 150 μl of scintillation fluid (Microscint 40) (Packard) was added to each well. Incorporation of [γ-^33P] ATP was measured using a Top-Count NXT (Packard).
On to `CN(C)S(=O)(=O)c1ccc(-n2nc(C(N)=O)c3c2-c2cc(NC(=O)c4ccccc4Cl)ccc2CC3)cc1` [Example 50, 8-[(2-chlorobenzoyl)amino]-1-{4-[(dimethylamino)sulfonyl]phenyl}-4,5-dihydro-1H-benzo[g]indazole-3-carboxamide], for which the IC50 is not above 1000 nM.

Still in this assay, the particulars now being: Table 2; read-out: IKK Resin IC50.
Turning to `CS(=O)(=O)c1ccc(-n2nc(C(N)=O)c3c2-c2cc(NC(=O)c4ccccc4C(F)(F)F)ccc2CC3)cc1` [Example 93, 1-[4-(methylsulfonyl)phenyl]-8-{[2-(trifluoromethyl)benzoyl]amino}-4,5-dihydro-1H-benzo[g]indazole-3-carboxamide], the IC50 was not above 1000 nM. For the molecule `Cc1ccccc1C(=O)Nc1ccc2c(c1)-c1c(c(C(N)=O)nn1-c1ccc(S(C)(=O)=O)cc1)CC2` [Example 94, 8-[(2-methylbenzoyl)amino]-1-[4-(methylsulfonyl)phenyl]-4,5-dihydro-1H-benzo[g]indazole-3-carboxamide], the IC50 is not above 1000 nM. The same measure, in the same setting: to `CS(=O)(=O)c1ccc(-n2nc(C(N)=O)c3c2-c2cc(NC(=O)c4ccccc4Cl)ccc2CC3)cc1` [Example 95, 8-[(2-chlorobenzoyl)animo]-1-[4-(methylsulfonyl)phenyl]-4,5-dihydro-1H-benzo[g]indazole-3-carboxamide] belongs not above 1000 nM; to `CS(=O)(=O)c1ccc(-n2nc(C(N)=O)c3c2-c2cc(NC(=O)c4cccc(Cl)c4Cl)ccc2CC3)cc1` [Example 96, 8-[(2,3-dichlorobenzoyl)amino]-1-[4-(methylsulfonyl)phenyl]-4,5-dihydro-1H-benzo[g]indazole-3-carboxamide], not above 1000 nM. Same read-out and setting: then `CS(=O)(=O)c1ccc(-n2nc(C(N)=O)c3c2-c2cc(NC(=O)c4ccccc4F)ccc2CC3)cc1` [Example 97, 8-[(2-fluorobenzoyl)amino]-1-[4-(methylsulfonyl)phenyl]-4,5-dihydro-1H-benzo[g]indazole-3-carboxamide], with not above 1000 nM; and `CS(=O)(=O)c1ccc(-n2nc(C(N)=O)c3c2-c2cc(NC(=O)c4cccnc4Cl)ccc2CC3)cc1` [Example 98, 8-{[(2-chloropyridin-3-yl)carbonyl]amino}-1-[4-(methylsulfonyl)phenyl]-4,5-dihydro-1H-benzo[g]indazole-3-carboxamide], with not above 1000 nM; and `Cc1ncccc1C(=O)Nc1ccc2c(c1)-c1c(c(C(N)=O)nn1-c1ccc(S(C)(=O)=O)cc1)CC2` [Example 100], with not above 1000 nM. Still for that read-out and setting: to `CS(=O)(=O)c1ccc(-n2nc(C(N)=O)c3c2-c2cc(NC(=O)c4cccc(F)c4F)ccc2CC3)cc1` [Example 101, 8-[(2,3-difluorobenzoyl)amino]-1-[4-(methylsulfonyl)phenyl]-4,5-dihydro-1H-benzo[g]mdazole-3-carboxamide] belongs not above 1000 nM. With `CS(=O)(=O)c1ccc(-n2nc(C(N)=O)c3c2-c2cc(NC(=O)c4ccccc4[N+](=O)[O-])ccc2CC3)cc1` [Example 102, 1-[4-(methylsulfonyl)phenyl]-8-[(2-nitrobenzoyl)amino]-4,5-dihydro-1H-benzo[g]indazole-3-carboxamide], the IC50 was not above 1000 nM. On the same count and under the same terms, to `CS(=O)(=O)c1ccc(-n2nc(C(N)=O)c3c2-c2cc(NC(=O)c4cccc(Cl)c4F)ccc2CC3)cc1` [Example 104, 8-[(3-chloro-2-fluorobenzoyl)amino]-1-[4-(methylsulfonyl)phenyl]-4,5-dihydro-1H-benza[g]indazole-3-carboxamide] belongs not above 1000 nM; to `CS(=O)(=O)c1ccc(-n2nc(C(N)=O)c3c2-c2cc(NC(=O)c4cc(Cl)ccc4Cl)ccc2CC3)cc1` [Example 108, 8-[(2,5-dichlorobenzoyl)amino]-1-[4-(methylsulfonyl)phenyl]-4,5-dihydro-1H-benzo[g]indazole-3-carboxamide], not above 1000 nM; to `CS(=O)(=O)c1ccc(-n2nc(C(N)=O)c3c2-c2cc(NC(=O)c4ccncc4)ccc2CC3)cc1` [Example 110, 8-(isonicotinoylamino)-1-[4-(methylsulfonyl)phenyl]-4,5-dihydro-1H-benzo[g]indazole-3-carboxamide], not above 1000 nM. For the molecule `CS(=O)(=O)c1ccc(-n2nc(C(N)=O)c3c2-c2cc(NC(=O)c4cc([N+](=O)[O-])ccc4Cl)ccc2CC3)cc1` [Example 111, 8-[(2-chloro-5-nitrobenzoyl)amino]-1-[4-(methylsulfonyl)phenyl]-4,5-dihydro-1H-benzo[g]indazole-3-carboxamide], the IC50 is not above 1000 nM. Same read-out and setting: then `CS(=O)(=O)c1ccc(-n2nc(C(N)=O)c3c2-c2cc(NC(=O)c4cc(N)ccc4Cl)ccc2CC3)cc1` [Example 112, 8-[(5-amino-2-chlorobenzoyl)amino]-1-[4-(methylsulfonyl)phenyl]-4,5-dihydro-1H-benzo[g]indazole-3-carboxamidehydrochloride], with not above 1000 nM; and `CS(=O)(=O)c1ccc(-n2nc(C(N)=O)c3c2-c2cc(NC(=O)c4ccc(Cl)c(N)c4)ccc2CC3)cc1` [Example 113, 8-[(3-amino-4-chlorobenzoyl)amino]-1-[4-(methylsulfonyl)phenyl]-4,5-dihydro-1H-benzo[g]indazole-3-carboxamide], with not above 1000 nM. The same measure, in the same setting: to `CS(=O)(=O)c1ccc(-n2nc(C(N)=O)c3c2-c2cc(NC(=O)c4ccc(N)cc4Cl)ccc2CC3)cc1` [Example 114, 8-[(4-amino-2-chlorobenzoyl)amino]-1-[4-(methylsulfonyl)phenyl]-4,5-dihydro-1H-benzo[g]indazole-3-carboxamide] belongs not above 1000 nM; to `CS(=O)(=O)c1ccc(-n2nc(C(N)=O)c3c2-c2cc(NC(=O)c4cccc(N)c4Cl)ccc2CC3)cc1` [Example 116, 8-[(3-amino-2-chlorobenzoyl)amino]-1-[4-(methylsulfonyl)phenyl]-4,5-dihydro-1H-benzo[g]indazole-3-carboxamide], not above 1000 nM; to `CS(=O)(=O)c1ccc(-n2nc(C(N)=O)c3c2-c2cc(NC(=O)c4ccc(Cl)cc4N)ccc2CC3)cc1` [Example 117, 8-[(2-amino-4-chlorobenzoyl)amino]-1-[4-(methylsulfonyl)phenyl]-4,5-dihydro-1H-benzo[g]indazole-3-carboxamide], not above 1000 nM. The same measure, in the same setting: to `CS(=O)(=O)c1ccc(-n2nc(C(N)=O)c3c2-c2cc(NC(=O)c4cccc(Cl)c4N)ccc2CC3)cc1` [Example 118, 8-[(2-amino-3-chlorobenzoyl)amino]-1-[4-(methylsulfonyl)phenyl]-4,5-dihydro-1H-benzo[g]indazole-3-carboxamide] belongs not above 1000 nM.

Consider `CN(C)CC(=O)Nc1ccc(Cl)c(C(=O)Nc2ccc3c(c2)-c2c(c(C(N)=O)nn2-c2ccc(S(C)(=O)=O)cc2)CC3)c1` [Example 119, 8-({2-chloro-5-[(N,N-dimethylglycyl)amino]benzoyl}amino)-1-[4-(methylsulfonyl)phenyl]-4,5-dihydro-1H-benzo[g]indazole-3-carboxamidehydrochloride], for which the IC50 was not above 1000 nM. On the same count and under the same terms, to `CN(C)c1ccc(Cl)c(C(=O)Nc2ccc3c(c2)-c2c(c(C(N)=O)nn2-c2ccc(S(C)(=O)=O)cc2)CC3)c1` [Example 120, 8-{[2-chloro-5-(dimethylamino)benzoyl]amino}-1-[4-(methylsulfonyl)phenyl]-4,5-dihydro-1H-benzo[g]indazole-3-carboxamide] belongs not above 1000 nM.
